Experimental findings from ChEMBL document CHEMBL1129687, “Antitumor activity of S-(p-bromobenzyl)glutathione diesters in vitro: a structure-activity study” (J Med Chem, 1996) are described below.

The assay in a line: The growth inhibitory concentration of compound was determined by logistic regression of viable cell number on Human leukemia 60 cells. Format: functional, 60 cell.
Take `NC(CCC(=O)NC(CSCc1ccc(Br)cc1)C(=O)NCC(=O)OC1CCCC1)C(=O)OC1CCCC1` (configuration not stated): the GC50 was 4.2 µM. As for `CCCCCOC(=O)CNC(=O)C(CSCc1ccc(Br)cc1)NC(=O)CCC(N)C(=O)OCCCCC` (configuration not stated), the figure is 22.2 µM; as for `CCCCOC(=O)CNC(=O)C(CSCc1ccc(Br)cc1)NC(=O)CCC(N)C(=O)OCCCC` (configuration not stated), 18.5 µM. With `CCOC(=O)CNC(=O)C(CSCc1ccc(Br)cc1)NC(=O)CCC(N)C(=O)OCC` (configuration not stated) the figure was 8.3 µM. With `CCCOC(=O)CNC(=O)C(CSCc1ccc(Br)cc1)NC(=O)CCC(N)C(=O)OCCC` (configuration not stated) the figure was 7.8 µM. In the case of `NC(CCC(=O)NC(CSCc1ccc(Br)cc1)C(=O)NCC(=O)OC1CCCCC1)C(=O)OC1CCCCC1` (configuration not stated), the GC50 is 29.2 µM. With `CC(C)OC(=O)CNC(=O)C(CSCc1ccc(Br)cc1)NC(=O)CCC(N)C(=O)OC(C)C` (configuration not stated) the figure was 19.6 µM.
